Data as given in PMC8911630, “New Pharmacological Strategies against Pancreatic Adenocarcinoma: The Multifunctional Thiosemicarbazone FA4” (Molecules, 2022).
Read-outs that look alike come from different tables or passages of the source.

Key:
PDAC-1 cells [1] = experiment: Apoptosis assay (annexinV-FITC), PDAC-1; type: cell-based, human
Procedure: (§1) Previous studies reported that the modulation of σ2 receptor activity contributes to the initiation of the apoptotic process. Therefore, we evaluated the effect of FA4 on the induction of apoptosis in the PDAC primary cultures. To this aim, we measured the externalization of the plasma membrane phosphatidylserine, a reliable marker of cell apoptosis, which was quantified by the measurement of the fluorescence of annexin-V by spectrophotometric assay and microscopy. After 24 h of treatment with 10 μM FA4, a significant increase in the portion of apoptotic cells was observed compared to untreated control cells. The highest apoptotic index was measured in the PDAC-2 cells (17.6 ± 3.6, compared to 15.5 ± 4.9 in the PDAC-1 cells).
(§2) Cells were seeded in 96-well plates (5 × 10^3 cells/well), and after 24 h, the cells were fixed with 4% paraformaldehyde in PBS for 30 min, then washed twice with PBS and stained with annexinV-FITC in binding buffer (10 mM HEPES/NaOH pH 7.4, 140 mM NaCl, and 2.5 mM CaCl2) for 10 min in the dark at room temperature. Lastly, cells were washed with the assay binding buffer solution, and fluorescence was measured by using a multimode plate reader with excitation and emission filters at 485 nm and 535 nm, respectively, to determine the apoptotic index. […]

[2] = Sulforhodamine B (SRB) assay, HPDE; type: cell-based, human; conditions: human; HPDE nontransformed cells, SRB, 72 h; read-out: Cytotoxicity IC50 ± SD
Procedure: (§9) Cells were seeded in 96-well flat-bottom plates at a density of 3000/well, using both a control plate and an experimental plate. After 24 h, the control plate was fixed with cold 50% trichloroacetic acid, and the incubation with the compound of interest was performed in the experimental plate. After 72 h of incubation, the experimental plate was also fixed. Subsequently, both plates were washed and stained with the SRB solution, and after vigorous washing and drying, the bound dye was extracted from the cells with an alkaline solution. The absorption of SRB was measured spectrophotometrically at a wavelength of 490 nm and 540 nm. The intensity of the signal is proportional to the number of living cells and, therefore, a measure of their proliferation. Thus, cell growth inhibition was calculated as the percentage versus vehicle-treated cells (“negative control”) OD (corrected for OD of the control plate before drug addiction). Finally, the half maximal inhibitory concentration (IC50) was calculated by nonlinear least squares curve fitting (GraphPad Prism 7, Intuitive Software for Science, San Diego, CA, USA), as described previously [33]. The SRB assay was performed in technical and biological triplicates.

normal HPDE cells = experiment: Sulforhodamine B (SRB) assay, HPDE; type: cell-based, human; conditions: HPDE cells vs PDAC tumor cells
Procedure: as §9

PDAC-2 cells [3] = experiment: Scratch wound-healing migration assay, PDAC-2; type: cell-based, human; conditions: PDAC-2, FA4 10 µM, 24 h
Procedure: (§3) Cancer cell migration is a key factor contributing to the aggressiveness of PDAC. It is therefore important to find new compounds that can counteract or stop this process. To evaluate the effect of FA4 on cell migratory properties, a migration assay was performed by incubating cells for 24 h with FA4.
(§4) Cells were seeded into 96-well plates 72 h before the assay at a density of 5 × 10^4 /well and allowed to attach and to become confluent. Subsequently, a scratch was performed in every well with a 96-pin scratcher, allowing the formation of uniform scratches. Immediately after this passage, cells were cultured for 24 h in complete medium with the drug of interest for experimental wells or without any drug for the control wells. Pictures were taken with an optical microscope at different time points (0, 6, and 24 h) and analyzed with the Scratch Assay 6.2 software (Digital Cell Imaging Labs, Keerbergen, Belgium). The migration assay was performed in technical and biological triplicates, as reported previously.

PDAC-2 cells [4] = experiment: Apoptosis assay (annexinV-FITC), PDAC-2; type: cell-based, human
Procedure: as §1, §2

PANC-1 cell line [5] = system: PANC-1 cell line; design: method as in PMID 34586588; conditions: read-out: Cytotoxicity IC50 ± SD PANC-1; cited from earlier work
PDAC-1 cells [6] = experiment: cells; conditions: Homo sapiens, 72 h, read-out: Cytotoxicity IC50 ± SD
Procedure: (§10) Human pancreatic adenocarcinoma primary cultures (PDAC1 and PDAC2) were cultured in RPMI + 10 % New Born Calf Serum + 1% Penicillin/ Streptomycin and maintained in standard conditions for <20 passages. Cells were routinely tested for Mycoplasma spp. and were free of contamination.
(§11) Cells were seeded in 96-well flat-bottom plates at a density of 3000/well, using both a control plate and an experimental plate. After 24 h, the control plate was fixed with cold 50% trichloroacetic acid, and the incubation with the compound of interest was performed in the experimental plate. After 72 h of incubation, the experimental plate was also fixed. Subsequently, both plates were washed and stained with the SRB solution, and after vigorous washing and drying, the bound dye was extracted from the cells with an alkaline solution. The absorption of SRB was measured spectrophotometrically at a wavelength of 490 nm and 540 nm. […] Thus, cell growth inhibition was calculated as the percentage versus vehicle-treated cells (“negative control”) OD (corrected for OD of the control plate before drug addiction). Finally, the half maximal inhibitory concentration (IC50) was calculated by nonlinear least squares curve fitting (GraphPad Prism 7, Intuitive Software for Science, San Diego, CA, USA), as described previously [33]. […]

[7] = system: pancreatic ductal adenocarcinoma (PDAC) primary cell cultures; experiment: Antiproliferative activity on PDAC primary cell cultures (both cultures together); type: cell-based; conditions: Homo sapiens; range over PDAC primary cell cultures; read-out: half maximal inhibitory concentration (IC50)
Text: A new sigma-2 (σ2) receptor ligand (FA4) was efficiently synthesized and evaluated for cytotoxic, proapoptotic, and antimigratory activity on pancreatic ductal adenocarcinoma (PDAC) primary cell cultures, which restrained the aggressive and chemoresistant behavior of PDAC. […] The cytotoxic activity was associated with induction of apoptosis, resulting in apoptotic indexes higher than those observed after exposure to a clinically relevant concentration of the gemcitabine, the first-line drug used against PDAC.

PDAC xenografts = system: PDAC xenografts; design: method as in PMID 34586588; conditions: cited from earlier work
PDAC-1 cells [8] = experiment: Scratch wound-healing migration assay, PDAC-1; type: cell-based, human; conditions: PDAC-1, FA4 10 µM, 24 h
Procedure: as §3, §4

PDAC-2 cells [9] = experiment: cells; conditions: Homo sapiens, PDAC-2, 72 h, read-out: Cytotoxicity IC50 ± SD
Procedure: as §10, §11

[10] = Sulforhodamine B (SRB) assay, Hs27; type: cell-based, human; conditions: human, normal skin fibroblast Hs27 cells; Hs27 nontransformed cells, SRB, 72 h; read-out: Cytotoxicity IC50 ± SD
Procedure: as §9

[11] = system: normal fibroblast Hs27 cells; experiment: Sulforhodamine B (SRB) assay, Hs27; type: cell-based, human; conditions: Hs27 cells vs PDAC tumor cells
Procedure: as §9

PANC-1 cell line [12] = experiment: Cytotoxicity in PANC-1 cell line; type: cell-based, human
σ1 receptor = σ1 receptor (Cavia porcellus, UniProt Q60492); experiment: σ1 receptor radioligand binding assay; conditions: mean of n ≥ 3 separate experiments in duplicate, read-out: Ki ± SD σ1
Sequence of σ1 receptor (Q60492 whole entry): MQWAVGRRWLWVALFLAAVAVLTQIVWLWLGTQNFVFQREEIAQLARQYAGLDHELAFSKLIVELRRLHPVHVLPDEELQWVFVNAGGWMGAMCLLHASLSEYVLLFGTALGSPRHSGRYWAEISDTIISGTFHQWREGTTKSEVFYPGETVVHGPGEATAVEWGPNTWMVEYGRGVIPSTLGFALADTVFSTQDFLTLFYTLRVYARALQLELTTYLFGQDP
Procedure: (§5) The compounds underwent radioligand binding assays on σ1 and σ2 receptors, according to the previously adopted protocols.
(§6) σ1 and σ2 receptor binding were carried out following Matsumoto et al.. […] All the procedures for the binding assays were described previously by Abate and collaborators.

[13] = system: hepatocarcinoma HepG2 cells; experiment: Cytotoxicity in HepG2 cells; type: cell-based; conditions: Homo sapiens
Procedure: (§7) On the other hand, the data also confirmed the need for a strategy with a greater impact on pancreatic tumors. From this perspective, the multitarget FA4 appeared to be a promising candidate and was selected to be further investigated in the primary PDAC cell cultures of the present study.
(§8) Previous experiments were performed with human pancreas cancer cell lines PANC-1 (CRL-1469™), MiaPaCa2 (CRL-1420™), BxPC-3 (CRL-1687™), PANC-02.03 (CRL-2553™), AsPC-1 (CRL-1682™), human A549 lung cancer cells (CRM-CCL-185™), human MCF7 adenocarcinoma breast cells (HTB-22™), and human HepG2 hepatocarcinoma cells (HB-8065™), obtained from ATCC. PANC-1, MiaPaCa2, BxPC-3, PANC-02.03, AsPC-1, and MCF7cells were cultured in DMEM with heat inactivated 10% FBS, penicillin ([…]), and streptomycin ([…]). HepG2 cells were cultured in MEM supplemented with 10% (v/v) heat inactivated FPS, 1% (v/v) glutamine, 1% (v/v) penicillin, and streptomycin, 1% (v/v) NEAA. A549 cells were grown in HAM’S F12 supplemented with 10% heat inactivated FBS, 2 mM glutamine, 100 U mL^−1 penicillin, and 100 μg/mL streptomycin. All these cells were kept at 37 °C in a humidified incubator under an atmosphere of 5% CO2 in 75 cm^2 tissue culture flasks (Greiner Bio-One GmbH, Frickenhausen, Germany) and were harvested with trypsin-EDTA in their exponentially growing phase.

[14] = system: breast adenocarcinoma MCF7 cells; experiment: Cytotoxicity in MCF7 cells; type: cell-based; conditions: Homo sapiens
Procedure: as §7, §8

[15] = system: lung adenocarcinoma A549 cells; experiment: Cytotoxicity in A549 cells; type: cell-based; conditions: Homo sapiens
Procedure: as §7, §8

σ2 receptor = target: T1, σ2 receptor (Rattus norvegicus, UniProt Q5U3Y7); experiment: σ2 receptor radioligand binding assay
T1 sequence (Q5U3Y7 1-176): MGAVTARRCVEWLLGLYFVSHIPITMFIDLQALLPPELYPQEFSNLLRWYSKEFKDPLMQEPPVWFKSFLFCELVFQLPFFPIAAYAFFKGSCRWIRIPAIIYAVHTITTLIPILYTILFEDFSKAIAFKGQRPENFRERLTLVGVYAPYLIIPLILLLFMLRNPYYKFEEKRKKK
Procedure: as §5, §6

[16] = Homo sapiens, PANC-1, read-out: Cytotoxicity IC50 ± SD PANC-1

CN(C)C(=S)N/N=C1\C(=O)N(CCCCN2CCC3(CC2)OCc2ccccc23)c2ccccc21 [FA4]
apoptotic index (PDAC-1 cells [1]; PDAC-1, 10 μM, 24 h, annexinV-FITC fold change compared to control cells): 15.5 ± 4.9
percentages of apoptotic cells compared to gemcitabine at 10 μM (PDAC-1 cells [1]; PDAC-1, 24 h treatment): significantly higher
IC50 at 72 h [2]: 8.07 ± 0.302 µM
selectivity index (SI, IC50 non-tumor cells/IC50 tumor cells) (normal HPDE cells): 11
migration rate (PDAC-2 cells [3]): significantly inhibit the migration rate
apoptotic index (PDAC-2 cells [4]; PDAC-2, 10 μM, 24 h, annexinV-FITC fold change compared to control cells): 17.6 ± 3.6
percentages of apoptotic cells compared to gemcitabine at 10 μM (PDAC-2 cells [4]; PDAC-2, 24 h treatment): significantly higher
IC50 (PANC-1 cell line [5]): 3.01 ± 0.9 µM
IC50 (PDAC-1 cells [6]): 0.825 ± 0.006 µM
IC50 [7]: 0.701 to 0.825 µM
safety in PDAC xenografts (PDAC xenografts): safe
migration rate (PDAC-1 cells [8]): significantly inhibit the migration rate
IC50 (PDAC-2 cells [9]): 0.701 ± 0.059 µM
IC50 at 72 h [10]: 5.55 ± 0.333 µM
selectivity index (SI, IC50 non-tumor cells/IC50 tumor cells) [11]: 7

Fc1ccc(-n2cc(CCCCN3CCC4(CC3)OCc3ccccc34)c3ccccc32)cc1 [Siramesine]
IC50 (PANC-1 cell line [12]; Homo sapiens, PANC-1 cell line, read-out: Cytotoxicity IC50 ± SD PANC-1): > 50 µM

Cc1ccccc1N=C(N)Nc1ccccc1C [DTG]
IC50 (PANC-1 cell line [12]; PANC-1 cell line, read-out: Cytotoxicity IC50 ± SD PANC-1): > 50 µM

CC(C)=CCN1CC[C@]2(C)c3cc(O)ccc3C[C@H]1[C@H]2C [(+)-pentazocine]
IC50 (PANC-1 cell line [12]; [16]): > 50 µM

c1ccc2c(c1)COC21CCN(CCCCn2ccc3ccccc32)CC1 [MT8, 1’-(4-(1H-indol-1-yl)butyl)-3H-spiro[isobenzofuran-1,4’-piperidine]]
Ki (σ1 receptor): 0.0273 ± 0.0026 µM
IC50 [13]: 3.2 µM
cytotoxic potency relative to FA4 (PANC-1 cell line [12]): six-fold less potent than FA4
IC50 (PANC-1 cell line [12]; [16]): 19.1 ± 1.3 µM
IC50 [14]: 6.02 µM
IC50 [15]: 4.29 µM
Ki (σ2 receptor): 0.00043 ± 0.0001 µM
